Results published in article PMC6811774, “Potent, selective, and subunit‐dependent activation of TRPC5 channels by a xanthine derivative” (British Journal of Pharmacology, 2019).

Target: TRPC4:C1 channels (Homo sapiens, UniProt P48995+Q9UBN4)
Assay: [Ca2+]i measurement in (Tet+) HEK T-REx cells expressing hTRPC4-C1 concatemer
Type: cell-based
Method: HEK T‐REx™ cell line was transfected with TRPC5‐SYFP2 or TRPC4‐SYFP2 using FuGENE® HD transfection reagent. After 48 hr, cells were put under antibiotic selection using 400 μg·ml^−1 zeocin and 10 μg·ml^−1 blasticidin S (Invivogen, San Diego, California, USA). Medium changes were carried out regularly to remove dead cells. HEK T‐REx cells expressing tetracycline‐inducible human TRPC5, TRPC4–C1, and TRPC5–C1 were created as described previously (Akbulut et al., 2015; Ludlow et al., 2017; Rubaiy, Ludlow, Henrot, et al., 2017). TRPC5–C1 and TRPC4–C1 concatemers allow expression of functional channels with defined 2:2 stoichiometry that display ion permeability and current–voltage relationships distinct from those of homomeric TRPC4:C4 or TRPC5:C5 channels and consistent with those obtained upon co‐expression of TRPC1 with TRPC4 or TRPC5 (Ludlow et al., 2017; Rubaiy, Ludlow, Bon, & Beech, 2017; Rubaiy, Ludlow, Henrot, et al., 2017). Cells were cultured in DMEM‐F12 GlutaMAX (Invitrogen, Paisley, UK) containing 10% FBS (Sigma‐Aldrich, Gillingham, UK), with the addition of blasticidin (10 μg·ml^−1) and zeocin (400 μg·ml^−1) to maintain the stable incorporation of the tetracycline repressor and the channel of interest, respectively. Expression of proteins was induced by the addition of tetracycline (1 μg·ml^−1, 24 hr). Cells were maintained in a humidified incubator with 5% CO2 at 37°C. HEK 293 cells stably expressing tetracycline‐regulated human http://www.guidetopharmacology.org/GRAC/ObjectDisplayForward?objectId=494 were prepared similarly and have also been described previously (McHugh, Flemming, Xu, Perraud, & Beech, 2003). For experiments using transient co‐expression of TRPC1 and TRPC5, HEK cells at 40–60% confluency were transfected with pIRES2‐AcGFP1 and pIRES2‐DsRed‐Express2 plasmids containing human TRPC1 and TRPC5, respectively, using Lipofectamine 3000 (ThermoFisher Scientific, Yokohama, Japan). All experiments using transient expression were performed within 48 hr after transfection. […]

TRPC4:C1 channels, sequence (Q9UBN4 whole entry): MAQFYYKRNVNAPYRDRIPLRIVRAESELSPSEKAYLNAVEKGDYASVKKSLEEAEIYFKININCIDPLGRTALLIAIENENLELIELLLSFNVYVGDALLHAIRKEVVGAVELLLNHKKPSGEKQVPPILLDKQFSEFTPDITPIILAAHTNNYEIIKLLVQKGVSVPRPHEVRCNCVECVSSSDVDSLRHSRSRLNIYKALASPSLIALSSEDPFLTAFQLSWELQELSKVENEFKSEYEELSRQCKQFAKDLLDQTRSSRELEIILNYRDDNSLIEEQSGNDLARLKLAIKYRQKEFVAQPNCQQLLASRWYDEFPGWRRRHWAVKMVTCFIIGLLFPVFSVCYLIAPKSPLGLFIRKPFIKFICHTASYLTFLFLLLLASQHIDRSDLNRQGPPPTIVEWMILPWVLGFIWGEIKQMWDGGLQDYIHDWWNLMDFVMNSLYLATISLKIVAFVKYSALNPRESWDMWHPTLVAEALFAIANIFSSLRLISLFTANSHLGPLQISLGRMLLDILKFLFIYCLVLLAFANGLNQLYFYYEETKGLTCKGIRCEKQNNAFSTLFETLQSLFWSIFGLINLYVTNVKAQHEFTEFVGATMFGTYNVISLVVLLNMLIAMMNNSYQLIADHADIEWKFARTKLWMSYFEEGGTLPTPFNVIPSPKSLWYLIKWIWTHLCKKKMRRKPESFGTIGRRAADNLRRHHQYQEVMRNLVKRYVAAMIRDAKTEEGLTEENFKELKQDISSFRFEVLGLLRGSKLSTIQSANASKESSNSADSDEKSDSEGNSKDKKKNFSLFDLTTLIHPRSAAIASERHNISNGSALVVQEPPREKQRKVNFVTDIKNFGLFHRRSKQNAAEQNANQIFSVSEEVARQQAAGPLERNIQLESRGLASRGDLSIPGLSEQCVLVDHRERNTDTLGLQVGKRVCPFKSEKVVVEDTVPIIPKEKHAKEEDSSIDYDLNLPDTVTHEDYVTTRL
TRPC4:C1 channels, sequence (P48995 whole entry): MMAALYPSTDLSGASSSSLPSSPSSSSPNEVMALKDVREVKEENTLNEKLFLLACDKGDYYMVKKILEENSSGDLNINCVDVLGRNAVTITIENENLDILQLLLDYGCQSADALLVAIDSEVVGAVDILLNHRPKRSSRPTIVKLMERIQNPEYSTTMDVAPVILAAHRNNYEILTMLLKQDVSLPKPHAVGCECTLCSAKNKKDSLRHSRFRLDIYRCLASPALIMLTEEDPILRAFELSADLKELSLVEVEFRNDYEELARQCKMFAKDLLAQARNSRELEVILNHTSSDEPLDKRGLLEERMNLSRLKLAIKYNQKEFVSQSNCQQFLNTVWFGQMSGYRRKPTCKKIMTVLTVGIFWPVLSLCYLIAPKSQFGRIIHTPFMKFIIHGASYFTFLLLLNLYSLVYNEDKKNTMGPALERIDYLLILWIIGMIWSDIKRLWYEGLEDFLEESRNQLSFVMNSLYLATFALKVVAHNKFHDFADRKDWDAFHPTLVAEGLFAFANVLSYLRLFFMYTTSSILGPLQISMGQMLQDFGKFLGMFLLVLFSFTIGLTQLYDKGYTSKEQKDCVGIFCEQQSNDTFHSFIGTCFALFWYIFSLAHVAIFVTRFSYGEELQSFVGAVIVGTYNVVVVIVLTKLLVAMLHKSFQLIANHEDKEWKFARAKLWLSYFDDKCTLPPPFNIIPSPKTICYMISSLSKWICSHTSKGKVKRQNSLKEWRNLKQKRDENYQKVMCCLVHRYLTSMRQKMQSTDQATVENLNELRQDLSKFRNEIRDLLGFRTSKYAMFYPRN

SMILES: Cn1c(=O)n(CCCO)c(=O)c2c1nc(Oc1ccc(Cl)c(OC(F)(F)F)c1)n2Cc1ccc(Cl)cc1 [AM237]
- Hill slope, inhibition of EA response: –1.3
- Effect of pretreatment on basal [Ca2+]i (0.03–30 nM AM237): did not affect
- Activation upon acute administration ([Ca2+]i) (3-300 nM AM237): lack of activation
